Converted amounts (≈) assume the structure as drawn.

Data set [1] can be described thus: Solubility of the compound at pH 1.2. The class given is physicochemical. Conditions: buffer.
The next data set deals with T1, CYP19 (aromatase) (Homo sapiens, UniProt P11511).
T1 sequence (P11511 whole entry): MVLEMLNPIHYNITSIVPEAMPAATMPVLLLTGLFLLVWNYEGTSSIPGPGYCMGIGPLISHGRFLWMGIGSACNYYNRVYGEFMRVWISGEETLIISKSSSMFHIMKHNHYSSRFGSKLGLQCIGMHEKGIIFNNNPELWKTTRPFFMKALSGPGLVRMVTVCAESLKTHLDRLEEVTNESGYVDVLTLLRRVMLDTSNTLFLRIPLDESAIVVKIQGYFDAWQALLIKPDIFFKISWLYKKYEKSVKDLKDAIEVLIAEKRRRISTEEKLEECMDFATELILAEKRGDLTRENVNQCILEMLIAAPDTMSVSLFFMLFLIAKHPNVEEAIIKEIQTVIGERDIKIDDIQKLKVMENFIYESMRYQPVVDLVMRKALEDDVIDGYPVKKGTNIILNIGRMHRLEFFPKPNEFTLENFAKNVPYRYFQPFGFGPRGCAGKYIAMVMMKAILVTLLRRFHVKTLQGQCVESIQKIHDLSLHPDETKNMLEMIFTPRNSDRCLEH
In words: Inhibition of CYP19 (unknown origin) at 1 uM.

Data set [2] addresses T2, Cytochrome P450 11B2, mitochondrial (Homo sapiens, UniProt P19099).
T2 sequence (P19099 whole entry): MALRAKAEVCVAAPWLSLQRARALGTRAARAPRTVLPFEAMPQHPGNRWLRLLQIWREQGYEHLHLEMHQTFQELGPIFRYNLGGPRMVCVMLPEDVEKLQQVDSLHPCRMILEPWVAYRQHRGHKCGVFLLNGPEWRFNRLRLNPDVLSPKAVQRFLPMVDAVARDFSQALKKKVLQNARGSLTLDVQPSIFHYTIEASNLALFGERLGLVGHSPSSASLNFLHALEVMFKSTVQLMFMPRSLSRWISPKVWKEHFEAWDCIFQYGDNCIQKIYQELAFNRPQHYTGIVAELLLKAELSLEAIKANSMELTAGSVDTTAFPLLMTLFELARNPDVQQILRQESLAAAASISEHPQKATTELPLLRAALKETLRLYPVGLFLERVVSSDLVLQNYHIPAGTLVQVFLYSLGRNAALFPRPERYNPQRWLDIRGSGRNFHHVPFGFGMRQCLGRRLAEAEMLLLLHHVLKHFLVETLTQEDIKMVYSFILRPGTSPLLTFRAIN
Description: Inhibition of human CYP11B2 expressed in HEK293A cells using deoxycorticosterone as substrate pretreated for 1 hr followed by substrate addition measured after 1 hr by HTRF assay

A short description of data set [3]: Plasma protein binding in mouse. It is filed as ADME, cell-free. Conditions: read-out: PPB (converted).
In a further data set the target is CYP2C9 (Homo sapiens, UniProt P11712). In words: Inhibition of CYP2C9 (unknown origin) at 10 uM. The class given is ADME.
CYP2C9, sequence (P11712 whole entry): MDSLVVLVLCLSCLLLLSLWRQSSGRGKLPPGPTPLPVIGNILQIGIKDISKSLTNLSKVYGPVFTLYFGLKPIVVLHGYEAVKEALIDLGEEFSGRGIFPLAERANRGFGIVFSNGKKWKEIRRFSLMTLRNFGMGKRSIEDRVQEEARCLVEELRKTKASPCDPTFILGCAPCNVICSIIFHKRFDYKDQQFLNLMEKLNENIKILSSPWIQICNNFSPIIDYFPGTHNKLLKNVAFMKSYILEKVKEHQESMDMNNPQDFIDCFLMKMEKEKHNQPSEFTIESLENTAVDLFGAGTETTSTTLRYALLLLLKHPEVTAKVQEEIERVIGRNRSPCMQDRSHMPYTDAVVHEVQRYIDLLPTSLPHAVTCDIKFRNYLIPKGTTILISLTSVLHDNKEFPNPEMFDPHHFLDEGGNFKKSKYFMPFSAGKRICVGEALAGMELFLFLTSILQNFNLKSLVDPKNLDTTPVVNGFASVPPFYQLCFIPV
The nature of data set [4]: Half life in cynomolgus monkey at 3 mg/kg, po administered as single dose. The class given is ADME, organism-based, Macaca fascicularis. The following applies: in vivo.
A further data set addresses CYP2D6 (Homo sapiens, UniProt P10635). In words: Inhibition of CYP2D6 (unknown origin) at 10 uM. It is filed as ADME.
A short description of data set [5]: Solubility of the compound at pH 6.8. Conditions: buffer. It is filed as physicochemical.
Data set [6] can be described thus: Total AUC in cynomolgus monkey at 3 mg/kg, po administered as single dose. The following applies: in vivo. The class given is ADME, organism-based, Macaca fascicularis. Also on record: dose 3 mg/kg, time AUCmax, route oral.
For data set [7], the target named is T3, Cytochrome P450 11B2, mitochondrial (Mus musculus, UniProt P15539).
T3 sequence (P15539 whole entry): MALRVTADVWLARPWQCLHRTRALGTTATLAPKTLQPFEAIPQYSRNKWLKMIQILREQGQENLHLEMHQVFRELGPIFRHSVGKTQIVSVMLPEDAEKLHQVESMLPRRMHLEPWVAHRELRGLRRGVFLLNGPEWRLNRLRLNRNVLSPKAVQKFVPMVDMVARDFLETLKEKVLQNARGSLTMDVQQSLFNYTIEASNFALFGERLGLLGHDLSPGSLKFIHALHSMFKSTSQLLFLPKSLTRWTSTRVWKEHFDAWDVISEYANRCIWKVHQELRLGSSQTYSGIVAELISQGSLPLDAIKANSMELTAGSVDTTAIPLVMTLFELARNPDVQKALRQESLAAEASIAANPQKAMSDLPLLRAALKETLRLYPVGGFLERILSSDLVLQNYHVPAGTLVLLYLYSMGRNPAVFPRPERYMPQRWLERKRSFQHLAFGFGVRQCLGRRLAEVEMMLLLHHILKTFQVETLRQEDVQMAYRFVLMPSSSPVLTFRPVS
Description: Inhibition of mouse CYP11B2 expressed in HEK293 cells using deoxycorticosterone as substrate pretreated for 1 hr followed by substrate addition after 2 hrs by HTRF assay

The next data set concerns the target T4, CYP1A2 (Homo sapiens, UniProt P05177).
T4 sequence (P05177 whole entry): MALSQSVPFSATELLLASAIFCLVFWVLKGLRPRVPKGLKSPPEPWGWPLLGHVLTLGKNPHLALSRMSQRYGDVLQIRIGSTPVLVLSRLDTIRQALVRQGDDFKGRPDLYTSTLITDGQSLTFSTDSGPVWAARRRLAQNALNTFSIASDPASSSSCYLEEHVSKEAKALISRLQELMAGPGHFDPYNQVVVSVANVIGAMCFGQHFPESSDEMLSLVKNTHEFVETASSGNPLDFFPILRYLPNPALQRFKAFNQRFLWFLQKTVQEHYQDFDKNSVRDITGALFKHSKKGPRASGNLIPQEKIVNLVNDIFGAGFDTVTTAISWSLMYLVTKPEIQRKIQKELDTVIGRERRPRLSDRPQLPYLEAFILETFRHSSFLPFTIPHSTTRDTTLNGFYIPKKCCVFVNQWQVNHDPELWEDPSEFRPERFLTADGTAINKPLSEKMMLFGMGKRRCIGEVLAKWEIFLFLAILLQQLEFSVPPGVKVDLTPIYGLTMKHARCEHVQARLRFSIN
The experiment in a line: Inhibition of CYP1A2 (unknown origin) at 10 uM. The class given is ADME.

For another data set, the target named is CYP3A4 (Homo sapiens, UniProt P08684). In words: Inhibition of CYP3A4 (unknown origin) at 10 uM.
CYP3A4, sequence (P08684 whole entry): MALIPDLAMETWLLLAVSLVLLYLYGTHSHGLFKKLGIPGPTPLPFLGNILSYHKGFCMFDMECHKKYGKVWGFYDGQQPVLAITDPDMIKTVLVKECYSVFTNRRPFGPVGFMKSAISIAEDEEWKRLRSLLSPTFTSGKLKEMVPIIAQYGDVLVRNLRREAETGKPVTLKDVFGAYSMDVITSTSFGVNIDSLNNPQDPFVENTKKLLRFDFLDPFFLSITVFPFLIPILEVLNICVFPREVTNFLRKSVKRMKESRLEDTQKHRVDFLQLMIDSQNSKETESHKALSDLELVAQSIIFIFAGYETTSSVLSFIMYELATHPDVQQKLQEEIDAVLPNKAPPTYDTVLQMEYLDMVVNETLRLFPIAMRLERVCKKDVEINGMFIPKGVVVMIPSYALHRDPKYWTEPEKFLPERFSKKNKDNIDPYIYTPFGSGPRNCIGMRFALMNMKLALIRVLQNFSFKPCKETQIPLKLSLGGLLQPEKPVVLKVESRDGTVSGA
Data set [8] deals with T5, Cytochrome P450 11B1, mitochondrial (Homo sapiens, UniProt P15538).
T5 sequence (P15538 whole entry): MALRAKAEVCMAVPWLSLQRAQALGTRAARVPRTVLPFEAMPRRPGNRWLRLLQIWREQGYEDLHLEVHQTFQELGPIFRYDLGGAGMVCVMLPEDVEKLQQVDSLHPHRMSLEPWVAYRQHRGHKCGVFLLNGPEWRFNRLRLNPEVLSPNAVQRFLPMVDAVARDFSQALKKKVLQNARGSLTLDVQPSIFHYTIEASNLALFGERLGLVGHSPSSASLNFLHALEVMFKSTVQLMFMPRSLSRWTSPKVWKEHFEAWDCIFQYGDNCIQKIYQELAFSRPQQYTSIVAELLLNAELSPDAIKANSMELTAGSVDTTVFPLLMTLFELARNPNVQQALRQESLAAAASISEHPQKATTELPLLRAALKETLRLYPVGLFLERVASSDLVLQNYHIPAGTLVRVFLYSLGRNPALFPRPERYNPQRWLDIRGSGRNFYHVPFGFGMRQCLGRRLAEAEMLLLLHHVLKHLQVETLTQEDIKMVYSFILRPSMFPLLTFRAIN
In words: Inhibition of human CYP11B1 expressed in HEK293A cells. It is filed as ADME, cell-based, HEK293.

Data set [9] can be described thus: Tmax in cynomolgus monkey at 3 mg/kg, po administered as single dose. The class given is ADME, organism-based, Macaca fascicularis. The following applies: in vivo.
For a further data set, the system named is Liver. In words: Metabolic stability in human liver microsomes. The class given is ADME, microsome.
Data set [10] can be described thus: Cmax in cynomolgus monkey at 3 mg/kg, po administered as single dose. It is filed as ADME, organism-based, Macaca fascicularis. The arrangement: dose 3 mg/kg, route oral. Conditions: in vivo.

CYP2D6, sequence (P10635 whole entry): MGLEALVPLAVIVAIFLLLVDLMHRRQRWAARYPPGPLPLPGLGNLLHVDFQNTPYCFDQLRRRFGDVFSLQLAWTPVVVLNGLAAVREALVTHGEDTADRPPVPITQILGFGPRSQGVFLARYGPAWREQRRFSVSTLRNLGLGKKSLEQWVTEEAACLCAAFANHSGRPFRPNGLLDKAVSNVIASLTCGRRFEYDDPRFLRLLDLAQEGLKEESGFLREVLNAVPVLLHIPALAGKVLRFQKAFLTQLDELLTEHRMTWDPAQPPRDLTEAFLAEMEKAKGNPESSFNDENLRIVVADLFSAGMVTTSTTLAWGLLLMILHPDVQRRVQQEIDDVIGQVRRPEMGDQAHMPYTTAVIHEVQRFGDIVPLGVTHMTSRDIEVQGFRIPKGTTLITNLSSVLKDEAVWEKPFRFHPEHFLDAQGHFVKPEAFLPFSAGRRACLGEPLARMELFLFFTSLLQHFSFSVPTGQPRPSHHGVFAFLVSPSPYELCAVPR

As to `CS(=O)(=O)N1CCC(C(O)(c2cncnc2Nc2ccc(F)cc2)C(F)(F)F)CC1` (racemic), the solubility was 860 µg/mL (≈ 1920 µM) in data set [1] and 260 µg/mL (≈ 580 µM) in data set [5]. The molecule further yielded an inhibition at 1 µM on CYP19 (aromatase) of 16%. Moreover, the IC50 in [2] was 4 nM; in data set [7], 10 nM; in [8] it was 2 nM. Besides, the fraction unbound in [3] is 0.185. Further, the inhibition at 10 µM was 3.4% against CYP2C9, 5.8% against CYP2D6, < 0% against CYP1A2 and 4.1% on CYP3A4. In data set [4], the half-life was 2.31 h. This molecule had an exposure (AUC) in data set [6] of 3300 ng·h/mL. For the same molecule, the Tmax in data set [9] amounted to 2.67 h. The Stability with Liver was determined as 100%. The molecule further came in with a Cmax in [10] of 515 ng/mL.

The values above are taken from ChEMBL document CHEMBL4011612, “4-Anilino-pyrimidine, novel aldosterone synthase (CYP11B2) inhibitors bearing pyrimidine structures” (Bioorg Med Chem Lett, 2017).
